Target: Protease (Human immunodeficiency virus 1, UniProt Q9YQ12)
Experiment: Inhibition of HIV1 protease expressed in Escherichia coli using Abz-Ala-Arg-Val-Nle-Tyr(NO2)-Glu-Ala-Nle-NH2 peptide as substrate by FRET assay

Chain of Protease (Q9YQ12 whole entry): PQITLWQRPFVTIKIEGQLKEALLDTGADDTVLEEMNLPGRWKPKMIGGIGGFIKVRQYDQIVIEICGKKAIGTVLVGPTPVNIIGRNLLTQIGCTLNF

| SMILES | IC50 [µM] |
| --- | --- |
| CC1(C)CC[C@]2(C(=O)NCCCCCCCCCCC(=O)O)CC[C@]3(C)C(=CC[C@@H]4[C@@]5(C)CC[C@H](OC(=O)CCCC(=O)O)C(C)(C)[C@@H]5CC[C@]43C)[C@@H]2C1 | > 50 |
| CCC(=O)O[C@H]1CC[C@]2(C)[C@H]3CC=C4[C@@H]5CC(C)(C)CC[C@]5(C(=O)NCCCC(=O)O)CC[C@@]4(C)[C@]3(C)CC[C@H]2C1(C)C | > 50 |
| CCCCCCCCCCCC(=O)O[C@H]1CC[C@]2(C)[C@H]3CC=C4[C@@H]5CC(C)(C)CC[C@]5(C(=O)NCCCC(=O)NCC(=O)O)CC[C@@]4(C)[C@]3(C)CC[C@H]2C1(C)C | > 50 |
| CCCCCCCCCCCC(=O)O[C@H]1CC[C@]2(C)[C@H]3CC=C4[C@@H]5CC(C)(C)CC[C@]5(C(=O)NCCCC(=O)O)CC[C@@]4(C)[C@]3(C)CC[C@H]2C1(C)C | > 50 |
| CCC(=O)O[C@H]1CC[C@]2(C)[C@H]3CC=C4[C@@H]5CC(C)(C)CC[C@]5(C(=O)NCCCC(=O)NCC(=O)O)CC[C@@]4(C)[C@]3(C)CC[C@H]2C1(C)C | > 50 |
| CC1(C)CC[C@]2(C(=O)NCCCC(=O)O)CC[C@]3(C)C(=CC[C@@H]4[C@@]5(C)CC[C@H](OC(=O)CCCC(=O)O)C(C)(C)[C@@H]5CC[C@]43C)[C@@H]2C1 | 20.4 |
| CC1(C)CC[C@]2(C(=O)NCCCC(=O)O)CC[C@]3(C)C(=CC[C@@H]4[C@@]5(C)CC[C@H](OC(=O)c6ccccc6)C(C)(C)[C@@H]5CC[C@]43C)[C@@H]2C1 | > 50 |
| CC1(C)CC[C@]2(C(=O)NCCCC(=O)NCC(=O)O)CC[C@]3(C)C(=CC[C@@H]4[C@@]5(C)CC[C@H](OC(=O)c6ccccc6)C(C)(C)[C@@H]5CC[C@]43C)[C@@H]2C1 | > 50 |
| CCCC(=O)O[C@H]1CC[C@]2(C)[C@H]3CC=C4[C@@H]5CC(C)(C)CC[C@]5(C(=O)NCCCCCCCCCCC(=O)O)CC[C@@]4(C)[C@]3(C)CC[C@H]2C1(C)C | > 50 |
| CC(C)(CC(=O)O)CC(=O)O[C@H]1CC[C@]2(C)[C@H]3CC=C4[C@@H]5CC(C)(C)CC[C@]5(C(=O)NCCCCCC(=O)O)CC[C@@]4(C)[C@]3(C)CC[C@H]2C1(C)C | 12.4 |
| CC1(C)CC[C@]2(C(=O)NCCCC(=O)NCC(=O)O)CC[C@]3(C)C(=CC[C@@H]4[C@@]5(C)CC[C@H](OC(=O)CCCC(=O)O)C(C)(C)[C@@H]5CC[C@]43C)[C@@H]2C1 | > 50 |
| CCCC(=O)O[C@H]1CC[C@]2(C)[C@H]3CC=C4[C@@H]5CC(C)(C)CC[C@]5(C(=O)NCCCC(=O)NCC(=O)O)CC[C@@]4(C)[C@]3(C)CC[C@H]2C1(C)C | > 50 |
| CC1(C)CC[C@]2(C(=O)NCCCC(=O)NCC(=O)O)CC[C@]3(C)C(=CC[C@@H]4[C@@]5(C)CC[C@H](OC(=O)CCC(=O)O)C(C)(C)[C@@H]5CC[C@]43C)[C@@H]2C1 | > 50 |
| CC(=O)O[C@H]1CC[C@]2(C)[C@H]3CC=C4[C@@H]5CC(C)(C)CC[C@]5(C(=O)NCCCCCC(=O)O)CC[C@@]4(C)[C@]3(C)CC[C@H]2C1(C)C | > 50 |
| CCCCCC(=O)O[C@H]1CC[C@]2(C)[C@H]3CC=C4[C@@H]5CC(C)(C)CC[C@]5(C(=O)NCCCCCCCCCCC(=O)O)CC[C@@]4(C)[C@]3(C)CC[C@H]2C1(C)C | > 50 |
| CC(=O)O[C@H]1CC[C@]2(C)[C@H]3CC=C4[C@@H]5CC(C)(C)CC[C@]5(C(=O)NCCCCCCCCCCC(=O)O)CC[C@@]4(C)[C@]3(C)CC[C@H]2C1(C)C | > 50 |
| CCCCCC(=O)O[C@H]1CC[C@]2(C)[C@H]3CC=C4[C@@H]5CC(C)(C)CC[C@]5(C(=O)NCCCCCC(=O)O)CC[C@@]4(C)[C@]3(C)CC[C@H]2C1(C)C | > 50 |
| CC(=O)O[C@H]1CC[C@]2(C)[C@H]3CC=C4[C@@H]5CC(C)(C)CC[C@]5(C(=O)NCCCC(=O)NCC(=O)O)CC[C@@]4(C)[C@]3(C)CC[C@H]2C1(C)C | > 50 |
| CC(C)(CC(=O)O)CC(=O)O[C@H]1CC[C@]2(C)[C@H]3CC=C4[C@@H]5CC(C)(C)CC[C@]5(C(=O)NCCCCCCCCCCC(=O)O)CC[C@@]4(C)[C@]3(C)CC[C@H]2C1(C)C | > 50 |
| CCCCCCCCCCCC(=O)O[C@H]1CC[C@]2(C)[C@H]3CC=C4[C@@H]5CC(C)(C)CC[C@]5(C(=O)NCCCCCC(=O)O)CC[C@@]4(C)[C@]3(C)CC[C@H]2C1(C)C | > 50 |
| CC1(C)CC[C@]2(C(=O)NCCCC(=O)NCC(=O)O)CC[C@]3(C)C(=CC[C@@H]4[C@@]5(C)CC[C@H](OC(=O)c6ccccc6C(=O)O)C(C)(C)[C@@H]5CC[C@]43C)[C@@H]2C1 | 2.2 |
| CC1(C)CC[C@]2(C(=O)NCCCCCCCCCCC(=O)O)CC[C@]3(C)C(=CC[C@@H]4[C@@]5(C)CC[C@H](OC(=O)c6ccccc6)C(C)(C)[C@@H]5CC[C@]43C)[C@@H]2C1 | > 50 |

Continued, values first:

| IC50 [µM] | SMILES |
| --- | --- |
| > 50 | CC1(C)CC[C@]2(C(=O)NCCCCCC(=O)O)CC[C@]3(C)C(=CC[C@@H]4[C@@]5(C)CC[C@H](OC(=O)c6ccccc6)C(C)(C)[C@@H]5CC[C@]43C)[C@@H]2C1 |
| 17.7 | CC1(C)CC[C@]2(C(=O)NCCCC(=O)O)CC[C@]3(C)C(=CC[C@@H]4[C@@]5(C)CC[C@H](OC(=O)CCC(=O)O)C(C)(C)[C@@H]5CC[C@]43C)[C@@H]2C1 |
| > 50 | CCCC(=O)O[C@H]1CC[C@]2(C)[C@H]3CC=C4[C@@H]5CC(C)(C)CC[C@]5(C(=O)NCCCC(=O)O)CC[C@@]4(C)[C@]3(C)CC[C@H]2C1(C)C |
| > 50 | CC1(C)CC[C@]2(C(=O)NCCCCCCCCCCC(=O)O)CC[C@]3(C)C(=CC[C@@H]4[C@@]5(C)CC[C@H](OC(=O)CCC(=O)O)C(C)(C)[C@@H]5CC[C@]43C)[C@@H]2C1 |
| > 50 | CCC(=O)O[C@H]1CC[C@]2(C)[C@H]3CC=C4[C@@H]5CC(C)(C)CC[C@]5(C(=O)NCCCCCCCCCCC(=O)O)CC[C@@]4(C)[C@]3(C)CC[C@H]2C1(C)C |
| 33.3 | CC(C)(CC(=O)O)CC(=O)O[C@H]1CC[C@]2(C)[C@H]3CC=C4[C@@H]5CC(C)(C)CC[C@]5(C(=O)NCCCC(=O)O)CC[C@@]4(C)[C@]3(C)CC[C@H]2C1(C)C |
| 32.6 | CC(=O)O[C@H]1CC[C@]2(C)[C@H]3CC=C4[C@@H]5CC(C)(C)CC[C@]5(C(=O)NCCCC(=O)O)CC[C@@]4(C)[C@]3(C)CC[C@H]2C1(C)C |
| > 50 | CCCCCCCCCCCC(=O)O[C@H]1CC[C@]2(C)[C@H]3CC=C4[C@@H]5CC(C)(C)CC[C@]5(C(=O)NCCCCCCCCCCC(=O)O)CC[C@@]4(C)[C@]3(C)CC[C@H]2C1(C)C |
| > 50 | CCCCCC(=O)O[C@H]1CC[C@]2(C)[C@H]3CC=C4[C@@H]5CC(C)(C)CC[C@]5(C(=O)NCCCC(=O)O)CC[C@@]4(C)[C@]3(C)CC[C@H]2C1(C)C |
| > 50 | CCCCCC(=O)O[C@H]1CC[C@]2(C)[C@H]3CC=C4[C@@H]5CC(C)(C)CC[C@]5(C(=O)NCCCC(=O)NCC(=O)O)CC[C@@]4(C)[C@]3(C)CC[C@H]2C1(C)C |
| 1 | CC1(C)CC[C@]2(C(=O)NCCCCCC(=O)O)CC[C@]3(C)C(=CC[C@@H]4[C@@]5(C)CC[C@H](OC(=O)CCCC(=O)O)C(C)(C)[C@@H]5CC[C@]43C)[C@@H]2C1 |
| > 50 | CCC(=O)O[C@H]1CC[C@]2(C)[C@H]3CC=C4[C@@H]5CC(C)(C)CC[C@]5(C(=O)NCCCCCC(=O)O)CC[C@@]4(C)[C@]3(C)CC[C@H]2C1(C)C |
| > 50 | CCCC(=O)O[C@H]1CC[C@]2(C)[C@H]3CC=C4[C@@H]5CC(C)(C)CC[C@]5(C(=O)NCCCCCC(=O)O)CC[C@@]4(C)[C@]3(C)CC[C@H]2C1(C)C |

Source: ChEMBL document CHEMBL4334508, “Oleanolic Acid Derivatives as Potential Inhibitors of HIV-1 Protease” (J Nat Prod, 2019)
